Test results as given in ChEMBL document CHEMBL1139584 (Bioorg Med Chem Lett, 2005).

Assays:
[1] = molecular target: T1, Somatostatin receptor type 2 (Homo sapiens, UniProt P30874); test: Inhibitory constant against human sst2 receptor at a dose of 10 uM
[2] = molecular target: T2, Somatostatin receptor type 5 (Homo sapiens, UniProt P35346); test: Inhibitory constant against human sst5 receptor at a dose of 10 uM
[3] = molecular target: Somatostatin receptor type 1 (Homo sapiens, UniProt P30872); test: Binding affinity against human sst1 receptor at a dose of 10 uM
Somatostatin receptor type 1, sequence (P30872 whole entry): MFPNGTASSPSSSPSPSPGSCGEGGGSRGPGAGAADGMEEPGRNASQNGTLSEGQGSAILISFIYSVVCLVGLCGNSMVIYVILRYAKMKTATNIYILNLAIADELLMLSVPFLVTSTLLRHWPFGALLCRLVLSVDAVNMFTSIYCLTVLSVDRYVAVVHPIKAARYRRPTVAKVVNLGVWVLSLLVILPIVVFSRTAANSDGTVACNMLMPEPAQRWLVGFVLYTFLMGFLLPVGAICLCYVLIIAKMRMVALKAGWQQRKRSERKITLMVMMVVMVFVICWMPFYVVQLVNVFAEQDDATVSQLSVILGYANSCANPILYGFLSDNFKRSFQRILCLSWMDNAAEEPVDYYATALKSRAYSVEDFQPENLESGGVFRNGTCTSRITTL

[4] = molecular target: Somatostatin receptor type 4 (Homo sapiens, UniProt P31391); test: Binding affinity against human sst4 receptor at a dose of 10 uM
Somatostatin receptor type 4, sequence (P31391 whole entry): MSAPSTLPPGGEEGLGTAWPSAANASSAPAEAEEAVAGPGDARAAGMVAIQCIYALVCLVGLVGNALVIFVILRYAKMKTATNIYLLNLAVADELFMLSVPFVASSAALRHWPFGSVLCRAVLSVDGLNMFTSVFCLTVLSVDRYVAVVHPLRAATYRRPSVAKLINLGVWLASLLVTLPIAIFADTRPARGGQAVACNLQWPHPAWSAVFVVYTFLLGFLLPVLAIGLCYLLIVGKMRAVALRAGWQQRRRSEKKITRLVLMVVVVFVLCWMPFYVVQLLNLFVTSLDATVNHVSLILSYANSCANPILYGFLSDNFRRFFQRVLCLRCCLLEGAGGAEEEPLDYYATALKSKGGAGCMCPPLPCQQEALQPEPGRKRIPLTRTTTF

[5] = molecular target: T2, Somatostatin receptor type 5; test: Inhibition of forskolin-induced cAMP accumulation in CHO-K1 cells expressing human sst5 receptor; type: functional, cell-based
[6] = molecular target: Somatostatin receptor type 3 (Homo sapiens, UniProt P32745); test: Binding affinity against human sst3 receptor at 10 uM
Somatostatin receptor type 3, sequence (P32745 whole entry): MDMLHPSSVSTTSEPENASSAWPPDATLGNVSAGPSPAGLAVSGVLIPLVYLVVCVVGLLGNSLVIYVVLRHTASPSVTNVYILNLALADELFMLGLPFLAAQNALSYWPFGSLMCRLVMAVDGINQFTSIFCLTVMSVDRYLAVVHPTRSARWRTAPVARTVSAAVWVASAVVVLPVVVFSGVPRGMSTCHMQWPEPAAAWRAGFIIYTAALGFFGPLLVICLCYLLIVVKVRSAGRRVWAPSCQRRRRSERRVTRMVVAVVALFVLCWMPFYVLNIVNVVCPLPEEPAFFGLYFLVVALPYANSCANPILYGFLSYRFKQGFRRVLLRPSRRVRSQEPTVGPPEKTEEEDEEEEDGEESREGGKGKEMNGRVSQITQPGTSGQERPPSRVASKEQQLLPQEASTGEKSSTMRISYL

[7] = molecular target: T1, Somatostatin receptor type 2; test: Inhibition of forskolin-induced cAMP accumulation in CHO-K1 cells expressing human sst2 receptor; type: functional, cell-based

T1 sequence (P30874 whole entry): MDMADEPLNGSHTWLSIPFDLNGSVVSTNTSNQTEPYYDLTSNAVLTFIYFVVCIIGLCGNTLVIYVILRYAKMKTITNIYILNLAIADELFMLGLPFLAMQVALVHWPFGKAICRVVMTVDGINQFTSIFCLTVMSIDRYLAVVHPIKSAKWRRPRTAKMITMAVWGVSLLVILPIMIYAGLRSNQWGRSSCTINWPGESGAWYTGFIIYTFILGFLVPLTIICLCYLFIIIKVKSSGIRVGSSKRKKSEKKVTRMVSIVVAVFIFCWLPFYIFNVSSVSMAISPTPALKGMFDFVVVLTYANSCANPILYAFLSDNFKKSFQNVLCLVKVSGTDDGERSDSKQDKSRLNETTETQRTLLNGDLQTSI
T2 sequence (P35346 whole entry): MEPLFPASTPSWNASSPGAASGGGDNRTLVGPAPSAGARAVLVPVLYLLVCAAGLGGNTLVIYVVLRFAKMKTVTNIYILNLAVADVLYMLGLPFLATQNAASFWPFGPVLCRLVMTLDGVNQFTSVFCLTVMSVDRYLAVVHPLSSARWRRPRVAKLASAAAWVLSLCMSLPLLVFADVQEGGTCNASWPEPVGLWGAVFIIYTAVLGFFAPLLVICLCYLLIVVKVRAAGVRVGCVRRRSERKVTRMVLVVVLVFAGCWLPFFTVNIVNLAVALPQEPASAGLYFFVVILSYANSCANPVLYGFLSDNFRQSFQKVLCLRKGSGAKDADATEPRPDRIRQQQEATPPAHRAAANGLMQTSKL

Ki [1] | Ki [2] | Ki [3] | Ki [4] | EC50 [5] | Ki [6] | EC50 [7] | Compound
100 nM | 27 nM |  |  |  |  |  | NCCCCn1c(SCCc2c[nH]c3ccccc23)nnc1-c1ccc2ccccc2c1
1.8 nM | 2.1 nM | 130 nM | 140 nM | 34 nM | 41 nM | 22 nM | Cc1cccc2c(CCSc3nnc(-c4ccc5ccccc5n4)n3CCCCN)c[nH]c12
640 nM | 66 nM |  |  |  |  |  | NCCCn1c(SCCc2c[nH]c3ccccc23)nnc1-c1ccc2ccccc2c1
2.7 nM | 1.7 nM | 58 nM | 74 nM | 44 nM | 100 nM | 14 nM | NCCCCn1c(SCCc2c[nH]c3cc(F)ccc23)nnc1-c1ccc2ccccc2n1
610 nM | 70 nM |  |  |  |  |  | NCCCCCn1c(SCCc2c[nH]c3ccccc23)nnc1-c1ccc2ccccc2c1
23 nM | 9.3 nM |  |  |  |  |  | Cc1cccc2c(C(=O)C(C)(C)CSc3nnc(-c4ccc5ccccc5n4)n3CCCCN)c[nH]c12
250 nM | 51 nM |  |  |  |  |  | NCCCCn1c(SCCc2c[nH]c3ccccc23)nnc1-c1cccc(Br)c1
430 nM | 26 nM |  |  |  |  |  | CCc1ccc(-c2nnc(SCCc3c[nH]c4ccccc34)n2CCCCN)cc1
32 nM | 56 nM |  |  |  |  |  | NCCCCn1c(SCCc2c[nH]c3ccccc23)nnc1-c1cnc2ccccc2n1
2 nM | 0.38 nM | 530 nM | 800 nM | 2.3 nM | 170 nM | 4 nM | Cc1cccc2c(C(=O)CCSc3nnc(-c4ccc5ccccc5n4)n3CCCCN)c[nH]c12
160 nM | 58 nM |  |  |  |  |  | NCCCCn1c(SCCc2c[nH]c3ccccc23)nnc1-c1cc2ccccc2s1
5.6 nM | 2.3 nM |  |  | 52 nM |  | 6.3 nM | NCCCCn1c(SCCc2c[nH]c3ccc(Cl)cc23)nnc1-c1ccc2ccccc2n1
12 nM | 7.8 nM |  |  |  |  |  | NCCCCn1c(SCCc2c[nH]c3ccccc23)nnc1-c1ccc2cc(F)ccc2n1
220 nM | 64 nM |  |  |  |  |  | NCCCCn1c(SCCc2c[nH]c3ccccc23)nnc1-c1cccc2cc[nH]c12
2800 nM | 1300 nM |  |  |  |  |  | CN(C)CCCCn1c(SCCc2c[nH]c3ccccc23)nnc1-c1ccc2ccccc2c1
4 nM | 8.4 nM | 180 nM | 130 nM |  | 97 nM |  | NCCCCn1c(SCCc2c[nH]c3c(Cl)cccc23)nnc1-c1ccc2ccccc2n1
150 nM | 410 nM |  |  |  |  |  | NCCCCn1c(SCCc2c[nH]c3ccccc23)nnc1-c1cccc2ccccc12
